The test has as its system ⍺4β7. Kind of test: SPR: inhibition by linear peptides of soluble ⍺4β7 binding to a CD4 D1D2 coated surface. Particulars: SPR peptide scan (Fig 4A); ⍺4β7 pre-incubated with peptide 2 hours at room temperature; 1 mM MnCl2. The text has this:
We next modified our SPR -based assay in order to map the site(s) on CD4 that interacts with ⍺4β7. In this modified assay ⍺4β7 was passed over a surface coated with CD4 D1D2 in the absence or presence of 42 overlapping 15 amino acid linear peptides spanning CD4 residues 1–178 (S2 Table). Two peptides located in CD4 D1, #7 and #9, inhibited ⍺4β7 binding by ~17% (Fig 4A). The final peptide in CD4 D2, p42, inhibited binding by ~ 66%. Linear peptides often lack the true conformation of the protein from which they are derived. Additionally, the kinetic format of our assay allows for ligand-analyte rebinding during the association phase. These features render this inhibition assay somewhat insensitive. Nevertheless, the dynamic range of this assay is sufficient to identify interactions that are worthy of follow-up investigation (S4 Fig). As such, our preliminary findings raised the possibility that both D1 and D2 domains of CD4 interact with ⍺4β7. Of note, MAdCAM-1 and VCAM-1, like CD4, present two tandemly arrayed N-terminal IgSF domains (Fig 4B). In both cases, binding to ⍺4β7 is mediated by a 1° binding site in their D1s and an accessory site, located in their D2s. The term accessory is a misnomer insofar as these sites plays an essential role in ⍺4β7 binding. Follow-up experiments focused on p9 and p42, which we herein refer to as pCD4^33-47 and pCD4^165-178. pCD4^33-47 partially overlaps the D1 C’C” β-strands and a connecting loop. The primary gp120 contact site (Phe^43) lies at the N-terminal edge of this loop (Fig 4C). pCD4^165-178 includes Q^165 and K^166. These residues lie primarily within the G β-strand of D2, close to the boundary with D3. Because peptide inhibition assays sometime mediate nonspecific effects, further analysis was performed to better establish the role of these two regions of CD4 in binding to ⍺4β7.
To determine if this is the case, we employed an SPR -based assay. Biosensor surfaces were coated with either CD4 D1D2 or a 42 aa cyclic V2 peptide derived from the subtype E 92TH023 gp120 (cV2 92TH023). A third surface coated with MAdCAM-Ig was employed as a positive control. Soluble ⍺4β7 was passed over these surfaces. We then evaluated the capacity of staggered 15 aa peptides that span either CD4 D2 or gp120 V2 to inhibit this interaction (Fig 7A).
Experiments were performed using a Biacore 3000 instrument (Cytiva Life Sciences) using CM4 or CM5 sensor chips. The data were evaluated using BIAevaluation 4.1.1 software (Cytiva Life Sciences). The chip surface was activated by injecting 35 μl of a 1:1 mixture of 0.05 M N-hydroxysuccinimide and 0.2 M N-ethyl-N-(dimethylaminopropyl) carbodiimide at 5 μl/min. NeutrAvidin, HIV gp120, sCD4 (D1D2) or Hu-MAdCAM-Ig (R&D Systems) at concentrations of 5 μg/ml in 10mM NaOAc, pH 4.5, were immobilized to 250–750 resonance units (RU). After the proteins were immobilized to the desired densities, unreacted sites were blocked with 35 μl of 1 M Tris-HCl (pH 8.0). Biotinylated cyclic V2 peptides (1 μg/ml in 20 mM Tris-HCl, pH 8.0) were bound to the NeutrAvidin surfaces to densities of approximately 250–300 RU. One surface was activated and blocked without ligand as a control surface for non-specific binding. Signal from the control surface was subsequently subtracted. Running buffer was HBS (pH 7.4), 1 mM MnCl2, 0.005% Tween- 20, 0.05% soluble carboxymethyl-dextran. Binding experiments were carried out at a flow rate of 25 μl/min at 25°C. After a 2 min injection, the surface was washed for an additional 2 min in running buffer allowing dissociation of the bound ligand from the surface. The surfaces were regenerated by multiple injections of 4.5 M MgCl2 at a flow rate of 100 μl/min. Inhibition of ⍺4β7 binding by linear V2-loop and CD4 derived peptides was carried out by pre-incubating ⍺4β7 with the peptides in running buffer at the indicated concentrations for 2 hours at room temperature prior to passing them over the prepared surfaces as described above. […]

One sequence from article PMC10732398 (PLOS Pathogens, 2023) can be followed below.

For the sequence “QKKVEFKIDIVVLA [CD4 P42, linear CD4 D2 peptide, residues 165-178, G β-strand]”, the “inhibition of ⍺4β7 binding to CD4 D1D2 coated surface” value is ~ 66%.
